Square brackets hold non-standard residues; d marks the D form. Peptide text beside a SMILES is read from it.
Columns and labels:
[1] = system: U937 cells; experiment: CXCL12 mediated cell migration, U937 cells; type: cell-based, human; conditions: peptides at 10 μM (also stated 1 μM), 100 nM CXCL12, 4 hours
Experimental: Peptides were initially prepared as 1 mM stock in H2O and tested at a final concentration of 1 μM. […] U937 cells were resuspended in serum free media containing 0.5% bovine serum albumin (RPMI+GlutaMax (Gibco/Thermo Fisher Scientific, Gaithersburg, Md.)) at density of 5×10^6 cells/ml. […] Following the 4 hour incubation period the filter inserts were carefully removed and the migration of cells across the filter into the bottom chamber (receiver wells) was determined by measuring ATP levels using Cell TiterGlo 2.0, according to manufacturer's instructions (Promega, Madison, Wis.); luminescence measured using a Cytation 3 plate reader (BioTek, Winooski, Vt.).

[2] = system: C2C12 Mouse Myoblasts; experiment: Glucose utilization in C2C12 mouse myoblasts; type: cell-based; conditions: peptide 10 μM, 18-22 hours, relative to 0.1% DMSO treated control cells
Experimental: The effect of the peptides on glucose metabolism can be assessed using an assay of glucose utilization in cultured cultured cells such as mouse myoblasts. Peptides were initially prepared as 10 mM stock in DMSO and used at a final concentration of 10 μM (0.1% DMSO). C2C12 mouse myoblast cell line was purchased from American Type Culture Collection (Manassas, Va.). C2C12 cultures were maintained at 37° C. in a humidified atmosphere of 5% CO2/95% air with medium changes every second day. C2C12 cells were grown in DMEM (1 g/L glucose) supplemented with 10% FBS with 100 IU/ml penicillin and 100 μg/ml streptomycin. C2C12 cells were seeded at 7,000 cells per well on 96-well plates and cultured to confluence. Once the cell reached confluence the media was changed to DMEM (1 g/L glucose) supplemented with 2% HS with 100 IU/ml penicillin and 100 μg/ml streptomycin and maintained at 37° C. in a humidified atmosphere of 5% CO2/95% air, 5 days post-induction of differentiation fresh DMEM (1 g/L glucose) supplemented with 2% HS with 100 IU/ml penicillin and 100 μg/ml streptomycin was added to cultures. Cells were maintained at 37° C. in a humidified atmosphere of 5% CO2 and 95% air for 5 hours. After 5 hours test peptides at 10 μM or controls (0.5 mM or 1 mM metformin in 1% DMSO) prepared in fresh differentiation medium were added to cells and the cultures were maintained at 37° C. in a humidified atmosphere of 5% CO2/95% air for 18-22 hours. At the end of the incubation culture media was removed from the cells and the remaining glucose concentration was measured using a Glucose Assay kit (Abcam) according to the manufacturer's instructions, using a Cytation 3 plate reader at 570 nm (BioTek, Winooski, Vt.). Glucose concentrations in the medium were calculated relative to 0.1% DMSO treated control cells. The relative standard deviation of the result for the 0.1% DMSO treated control was <20%. Metformin was used as a positive control for reduction of glucose levels (increased glucose utilization glucose levels for treatment with metformin (1 mM) treatment were <20% of the 0.1% DMSO treated control value. The results are reported in Table 7.

[3] = system: 3T3-L1 Mouse Adipocytes; experiment: Free fatty acid levels in cultured mouse adipocytes; type: cell-based; conditions: peptide 10 μM, 20-22 hours then 3 hours with 1 nM isoproterenol; relative to isoproterenol treated cells
Experimental: The effect of the peptides on fatty acid metabolism can be assessed using an assay of free fatty acid levels in cultured cells such as mouse adipocytes. Peptides were initially prepared as 10 mM stock in DMSO and used at a final concentration of 10 μM (0.1% DMSO). […] Mouse 3T3-L1 cells purchased from ZenBio were seeded at 3,000 cells per well in 96-well plates in Pre-adipocyte Medium (Zen-Bio) and grown to confluence at 37° C. in a humidified atmosphere of 5% CO2/95% air. Two days after confluence, cells were placed in Adipocyte Differentiation Medium (Zen-Bio) and cultured for three additional days at 37° C. in a humidified atmosphere of 5% CO2/95% air. The culture media was then replaced with Adipocyte Maintenance Medium (Zen-Bio) and the cells maintained for an additional 9-12 days at 37° C. in a humidified atmosphere of 5% CO2/95% air with partial medium replacement every other day. Following 12-15 days of differentiation, test peptides were added at a final concentration of 10 μM in 0.1% DMSO and incubated for 20-22 hours in Adipocyte Maintenance Medium at 37° C. in a humidified atmosphere of 5% CO2/95% air. After 20-22 hours, 1 nM isoproterenol was added to all wells except untreated controls and test peptides were replenished. Insulin at 100 nM was added to control wells. Cells were incubated for 3 hours in Assay Buffer (Zen-Bio) at 37° C. in a humidified atmosphere of 5% CO2/95% air. Free fatty acid concentrations in the media were determined using a Free Fatty Acid Assay kit (Zen-Bio) according to the manufacturer's instructions using a Cytation 3 plate reader at 540 nm (BioTek, Winooski, Vt.). Absorbance values were corrected for untreated background and expressed relative to isoproterenol treated cells. Treatment with isoproterenol (1 nM) alone was used as the free fatty acid level stimulatory control. The relative standard deviation of the isoproterenol control was <10%. […] Free fatty acid levels for insulin (100 nM) treatment were <5% of the isoproterenol control value.

[4] = system: SH-SY5Y Neuroblastoma Cells; experiment: ATP levels (CellTiter-Glo); type: cell-based, human; conditions: peptide 10 μM, 18-20 hours, relative to 0.1% DMSO treated control
Experimental: The effect of the peptides on cellular metabolism can be assessed using an assay of ATP levels in cultured cells such as human neuroblastoma cells. Peptides were initially prepared as 10 mM stock in DMSO and used at a final concentration of 10 μM (0.1% DMSO). […] CellTiter-Glo® Assay kit was purchased from Promega. SH-SY5Y human bone marrow neuroblastoma cell line was purchased from American Type Culture Collection (Manassas, Va.) and licensed from Memorial Sloan-Kettering Cancer Center (New York, N.Y.). SH-SY5Y cells were grown in DMEM/F12 medium supplemented with 10% FBS with 100 IU/ml penicillin and 100 μg/ml streptomycin. Cultures were maintained at 37° C. in a humidified atmosphere of 5% CO2/95% air. SH-SY5Y cells were seeded at 30,000 cells per well on 96-well plates. […] ATP levels were determined using a CellTiter-Glo Assay kit (Promega) according to the manufacturer's instructions. Luminescence for each sample well on the plate was measured using a Cytation 3 plate reader (BioTek, Winooski, Vt.). Activity was calculated relative to 0.1% DMSO treated control. The relative standard deviation of the result for the 0.1% DMSO treated control was <5%.

With `CSCC[C@H](N)C(=O)N[C@@H](CC(C)C)C(=O)N[C@@H](CCCNC(=N)N)C(=O)N[C@@H](CCCNC(=N)N)C(=O)N[C@@H](Cc1ccc(O)cc1)C(=O)N[C@@H](Cc1c[nH]cn1)C(=O)N[C@@H](Cc1c[nH]cn1)C(=O)N[C@@H](CO)C(=O)N[C@H](C(=O)N[C@@H](CCCNC(=N)N)C(=O)N[C@@H](CO)C(=O)N[C@@H](CO)C(=O)N[C@@H](CC(C)C)C(=O)N[C@@H](CCCNC(=N)N)C(=O)N1CCC[C@H]1C(=O)N[C@@H](Cc1ccc(O)cc1)C(=O)N[C@H](C(=O)N[C@@H](CCCCN)C(=O)O)[C@@H](C)O)C(C)C` [compound 2] (H-MLRRYHHSVRSSLRPYTK-OH; N-terminus and C-terminus assumed) the “Percent Inhibition of CXCL12 Mediated Migration” value (from here on “Percent Inhibition”) [1] was 58%, the “Glucose concentration in medium, Percent of Untreated Control” value (shortened to “Glucose concentration in medium, Percent”) [2] was 126.7% and the “Free Fatty Acid Levels, MEAN % ISO” value [3] was 83.2%. For the same molecule, the “ATP Levels, % Control” value [4] was 100.1%.
For `CC(C)C[C@H](NC(=O)[C@H](CO)NC(=O)[C@H](CO)NC(=O)[C@H](CCCNC(=N)N)NC(=O)[C@@H](NC(=O)[C@H](CO)NC(=O)[C@H](Cc1c[nH]cn1)NC(=O)[C@H](Cc1c[nH]cn1)NC(=O)[C@H](Cc1ccc(O)cc1)NC(=O)[C@H](CCCNC(=N)N)NC(=O)[C@H](CCCNC(=N)N)NC(=O)[C@@H](N)CC(C)C)C(C)C)C(=O)N[C@@H](CCCNC(=N)N)C(=O)N1CCC[C@H]1C(=O)N[C@@H](Cc1ccc(O)cc1)C(=O)N[C@H](C(=O)N[C@@H](CCCCN)C(=O)O)[C@@H](C)O` [compound 3] (H-LRRYHHSVRSSLRPYTK-OH; N-terminus and C-terminus assumed), the “Percent Inhibition” value [1] was 101%, the “Glucose concentration in medium, Percent” value [2] was 125.8% and the “Free Fatty Acid Levels, MEAN % ISO” value [3] was 82.0%. For the same molecule, the “ATP Levels, % Control” value [4] was 102.5%.
In the case of `CC(C)C[C@H](NC(=O)[C@H](CO)NC(=O)[C@H](CO)NC(=O)[C@H](CCCNC(=N)N)NC(=O)[C@@H](NC(=O)[C@H](CO)NC(=O)[C@H](Cc1c[nH]cn1)NC(=O)[C@H](Cc1c[nH]cn1)NC(=O)[C@H](Cc1ccc(O)cc1)NC(=O)[C@H](CCCNC(=N)N)NC(=O)[C@H](CCC(=O)O)NC(=O)[C@@H](N)CC(C)C)C(C)C)C(=O)N[C@@H](CCCNC(=N)N)C(=O)N1CCC[C@H]1C(=O)N[C@@H](Cc1ccc(O)cc1)C(=O)N[C@H](C(=O)N[C@@H](CCCCN)C(=O)O)[C@@H](C)O` [compound 4] (H-LERYHHSVRSSLRPYTK-OH; N-terminus and C-terminus assumed), the “Percent Inhibition” value [1] is reported as 98%, the “Glucose concentration in medium, Percent” value [2] is reported as 127.8% and the “Free Fatty Acid Levels, MEAN % ISO” value [3] is reported as 92.3%. The “ATP Levels, % Control” value [4] was 98.5%.
With `CC(C)C[C@H](NC(=O)[C@H](CO)NC(=O)[C@H](CO)NC(=O)[C@H](CCCNC(=N)N)NC(=O)[C@@H](C)NC(=O)[C@H](CO)NC(=O)[C@H](Cc1c[nH]cn1)NC(=O)[C@H](Cc1c[nH]cn1)NC(=O)[C@H](Cc1ccc(O)cc1)NC(=O)[C@H](CCCNC(=N)N)NC(=O)[C@H](CCC(=O)O)NC(=O)[C@@H](N)CC(C)C)C(=O)N[C@@H](CCCNC(=N)N)C(=O)N1CCC[C@H]1C(=O)N[C@@H](Cc1ccc(O)cc1)C(=O)N[C@H](C(=O)O)[C@@H](C)O` [compound 5] (H-LERYHHS[dA]RSSLRPYT-OH; N-terminus and C-terminus assumed) the “Percent Inhibition” value [1] was 86%, the “Glucose concentration in medium, Percent” value [2] was 128.3% and the “Free Fatty Acid Levels, MEAN % ISO” value [3] was 86.9%. For the same molecule, the “ATP Levels, % Control” value [4] was 97.0%.

Source: patent US20220395553A1, “CXCR4 ANTAGONIST PEPTIDES” (COHBAR, INC., priority 2019, published 2022)
